Patent publication US11845760B2, “PRMT5 inhibitors” (AMGEN INC., priority 2020, dated 2023)
Where two headings read alike, the source gives them in different places.

Columns and labels:
HCT116 MTAP null cells = assay: HCT116 MTAP null cell line proliferation (CellTiter-Glo cell viability, 6 days); assay type: cell-based; details: HCT116 MTAP null cells, 6 days of treatment, CellTiter-Glo cell viability, read-out: HCT-116 MTAP null IC50
Method: (§1) To assess selective anti-proliferative activity of compounds of the invention in cells that have loss expression of MTAP, an HCT-116 isogenic cell line pair was utilized where one cell line was engineered to genetically knockout both MTAP alleles. Cell viability was then assessed in both the parent HCT-116 cell line and the MTAP null cell line after 6 days of treatment with compounds of the present invention. Selective anti-proliferative activity in the MTAP null cell line indicates MTA-cooperative inhibition of PRMT5 and ability to inhibit growth of cancer cells that have loss of MTAP.
(§2) HCT116 MTAP null and WT cells were seeded in 96-well tissue culture plates in RPMI 1640 media+10% fetal bovine serum. Plates were incubated overnight at 37° C. and 5% CO2. Cells were then treated with an 8- or 9-point serial dilution of compound, using a top concentration of 1, or 10 μM, 1:3 serial dilution steps and, a DMSO-only control. Cells were incubated in the presence of drug for 6 days. Effects on cell viability were measured with the CellTiter-Glo® Luminescent Cell Viability Assay (Promega) per manufacturer's recommendation. Assay plates were read on an EnVision™ Multilabel Reader using the Ultra-Sensitive luminescence module. IC50 values were calculated with GraphPad Prism v 5.01 using symmetrical sigmoidal dose-response least squares fit with Hill slope fixed to −1 and top constrain to 100% or GeneData Screener using a 4-parameter logistic model to fit dose response curves.
(§3) Alternatively, compounds could be assayed with a 384 well plate format:
(§4) Compounds were pre-spotted into 384 well plates with a 22-point serial dilution of compound, using a top concentration of 10 or 50 μM, 1:2 serial dilution steps and, a DMSO-only control. HCT116 MTAP null and WT cells were then seeded as above and after 6 days effects on cell viability were measured with the CellTiter-Glo® Luminescent Cell Viability Assay (Promega). Assay plates were read as above and IC50 values were calculated with GeneData Screener using a 4-parameter logistic model to fit dose response curves. The reported IC50 represents the value where the curve transits 50% of control.

HCT116 WT cells = assay: HCT116 WT cell line proliferation (CellTiter-Glo cell viability, 6 days); assay type: cell-based; details: HCT116 WT (parent) cells, 6 days of treatment, CellTiter-Glo cell viability, read-out: HCT-116 WT IC50
Method: as §1, §2, §3, §4

Compound	IC50 (HCT116 MTAP null cells; HCT116-MTAP null, 144 h) [µM]	IC50 (HCT116 WT cells; Homo sapiens, HCT-116, 144 h) [µM]	IC50 (HCT116 MTAP null cells) [µM]	IC50 (HCT116 WT cells) [µM]
C[C@H]1COC[C@@H](c2ccc(C(F)(F)F)cn2)N1C(=O)c1cc2c3c(c(N)nc2cc1F)COC3 (mixture of isomers) [Example 304, (4-amino-7-fluoro-1,3-dihydrofuro[3,4-c]quinolin-8-yl)((3R,5S)-3-methyl-5-(5-(trifluoromethyl)-2-pyridinyl)-4-morpholinyl)methanone and (4-amino-7-fluoro-1,3-dihydrofuro[3,4-c]quinolin-8-yl)((3S,5R)-3-methyl-5-(5-(trifluoromethyl)-2-pyridinyl)-4-morpholinyl)methanone]	0.71	0.572	–	–
CC1OCc2c1c(N)nc1cnc(C(=O)N3C(C)COCC3c3ccc(OC(F)F)nn3)cc21 (mixture of isomers) [Example 316, ((3R)-4-amino-3-methyl-1,3-dihydrofuro[3,4-c][1,7]naphthyridin-8-yl)((3R,5S)-3-(6-(difluoromethoxy)-3-pyridazinyl)-5-methyl-4-morpholinyl)methanone and ((3R)-4-amino-3-methyl-1,3-dihydrofuro[3,4-c][1,7]naphthyridin-8-yl)((3S,5R)-3-(6-(difluoromethoxy)-3-pyridazinyl)-5-methyl-4-morpholinyl)methanone]	–	–	0.035	1.13
CC1OCc2c1c(N)nc1ccc(C(=O)N3C(C)COCC3c3ccc(OC(F)F)nn3)cc21 (mixture of isomers) [Example 317, ((3R)-4-amino-3-methyl-1,3-dihydrofuro[3,4-c]quinolin-8-yl)((3R,5S)-3-(6-(difluoromethoxy)-3-pyridazinyl)-5-methyl-4-morpholinyl)methanone and ((3R)-4-amino-3-methyl-1,3-dihydrofuro[3,4-c]quinolin-8-yl)((3S,5R)-3-(6-(difluoromethoxy)-3-pyridazinyl)-5-methyl-4-morpholinyl)methanone]	–	–	0.053	2.37
CC(C)Oc1ccc([C@H]2COCCN2C(=O)c2cc3c4c(c(N)nc3cn2)COC4)cn1 (mixture of isomers) [Example 323, (4-amino-1,3-dihydrofuro[3,4-c][1,7]naphthyridin-8-yl)((3R)-3-(6-(2-propanyloxy)-3-pyridinyl)-4-morpholinyl)methanone and (4-amino-1,3-dihydrofuro[3,4-c][1,7]naphthyridin-8-yl)((3S)-3-(6-(2-propanyloxy)-3-pyridinyl)-4-morpholinyl)methanone]	0.397	–	–	–
CCOc1ccc(C2COCCN2C(=O)c2cc3c4c(c(N)nc3cn2)[C@@H](C)OC4)nn1 (mixture of isomers) [Example 325, ((3R)-4-amino-3-methyl-1,3-dihydrofuro[3,4-c][1,7]naphthyridin-8-yl)((3R)-3-(6-ethoxy-3-pyridazinyl)-4-morpholinyl)methanone and ((3R)-4-amino-3-methyl-1,3-dihydrofuro[3,4-c][1,7]naphthyridin-8-yl)((3S)-3-(6-ethoxy-3-pyridazinyl)-4-morpholinyl)methanone]	0.771	> 10	–	–
CC1OCc2c1c(N)nc1cnc(C(=O)N3C(C)COCC3c3ccc(OC(F)(F)F)cc3F)cc21 (mixture of isomers) [Example 330, ((3S)-4-amino-3-methyl-1,3-dihydrofuro[3,4-c][1,7]naphthyridin-8-yl)((3R,5S)-3-(2-fluoro-4-(trifluoromethoxy)phenyl)-5-methyl-4-morpholinyl)methanone and ((3S)-4-amino-3-methyl-1,3-dihydrofuro[3,4-c][1,7]naphthyridin-8-yl)((3S,5R)-3-(2-fluoro-4-(trifluoromethoxy)phenyl)-5-methyl-4-morpholinyl)methanone]	–	–	0.403	20.9
CC1OCc2c1c(N)nc1ccc(C(=O)N3C(C)COCC3c3ccc(C(F)(F)F)cc3F)cc21 (mixture of isomers) [Example 331, ((3R)-4-amino-3-methyl-1,3-dihydrofuro[3,4-c]quinolin-8-yl)((3R,5S)-3-(2-fluoro-4-(trifluoromethyl)phenyl)-5-methyl-4-morpholinyl)methanone and ((3R)-4-amino-3-methyl-1,3-dihydrofuro[3,4-c]quinolin-8-yl)((3S,5R)-3-(2-fluoro-4-(trifluoromethyl)phenyl)-5-methyl-4-morpholinyl)methanone]	–	–	0.035	0.897
CC1OCc2c1c(N)nc1cnc(C(=O)N3C(C)COCC3c3ccc(C(F)(F)F)cc3F)cc21 (mixture of isomers) [Example 332, ((3S)-4-amino-3-methyl-1,3-dihydrofuro[3,4-c][1,7]naphthyridin-8-yl)((3R,5S)-3-(2-fluoro-4-(trifluoromethyl)phenyl)-5-methyl-4-morpholinyl)methanone and ((3S)-4-amino-3-methyl-1,3-dihydrofuro[3,4-c][1,7]naphthyridin-8-yl)((3S,5R)-3-(2-fluoro-4-(trifluoromethyl)phenyl)-5-methyl-4-morpholinyl)methanone]	–	–	0.536	23.3
CC1OCc2c1c(N)nc1cnc(C(=O)N3CCOCC3c3ccc(C(F)(F)C(F)(F)F)cc3)cc21 (mixture of isomers) [Example 337, ((3R)-4-amino-3-methyl-1,3-dihydrofuro[3,4-c][1,7]naphthyridin-8-yl)((3S)-3-(4-(pentafluoroethyl)phenyl)-4-morpholinyl)methanone and ((3S)-4-amino-3-methyl-1,3-dihydrofuro[3,4-c][1,7]naphthyridin-8-yl)((3S)-3-(4-(pentafluoroethyl)phenyl)-4-morpholinyl)methanone]	–	–	0.03	1.47
C[C@H]1COC[C@@H](c2ccc(C(F)(F)F)cn2)N1C(=O)c1cc2c3c(c(N)nc2cc1Cl)COC3 (racemic) [Example 301, (4-amino-7-chloro-1,3-dihydrofuro[3,4-c]quinolin-8-yl)((3R,5S)-3-methyl-5-(5-(trifluoromethyl)-2-pyridinyl)-4-morpholinyl)methanone and (4-amino-7-chloro-1,3-dihydrofuro[3,4-c]quinolin-8-yl)((3S,5R)-3-methyl-5-(5-(trifluoromethyl)-2-pyridinyl)-4-morpholinyl)methanone]	0.006	0.06	–	–
C[C@@H]1COC[C@H](c2cc(F)cc(F)c2)N1C(=O)c1cc2c3c(c(N)nc2cn1)[C@@H](C)OC3 (racemic) [Example 324, ((3R)-4-amino-3-methyl-1,3-dihydrofuro[3,4-c][1,7]naphthyridin-8-yl)((3R,5S)-3-(3,5-difluorophenyl)-5-methyl-4-morpholinyl)methanone and ((3R)-4-amino-3-methyl-1,3-dihydrofuro[3,4-c][1,7]naphthyridin-8-yl)((3S,5R)-3-(3,5-difluorophenyl)-5-methyl-4-morpholinyl)methanone]	0.186	–	–	–
Nc1nc2ccc(C(=O)N3CCOCC3c3ccccc3Cl)cc2c2c1COC2 (racemic) [Example 360, (4-amino-1,3-dihydrofuro[3,4-c]quinolin-8-yl)-[rac-(3S)-3-(2-chlorophenyl)morpholin-4-yl]methanone]	1.05	–	–	–
Cc1ccc(C2COCCN2C(=O)c2ccc3nc(N)c4c(c3c2)COC4)cc1 (racemic) [Example 361, (4-amino-1,3-dihydrofuro[3,4-c]quinolin-8-yl)-[rac-(3S)-3-(p-tolyl)morpholin-4-yl]methanone]	0.839	–	–	–
Nc1nc2ccc(C(=O)N3CCOCC3c3cccc(Br)c3)cc2c2c1COC2 (racemic) [Example 366, (4-amino-1,3-dihydrofuro[3,4-c]quinolin-8-yl)-[rac-(3S)-3-(3-bromophenyl)morpholin-4-yl]methanone]	0.363	–	–	–
Nc1nc2ccc(C(=O)N3CCOCC3c3ccc(Br)cc3)cc2c2c1COC2 (racemic) [Example 367, (4-amino-1,3-dihydrofuro[3,4-c]quinolin-8-yl)-[rac-(3S)-3-(4-bromophenyl)morpholin-4-yl]methanone]	0.368	–	–	–
Nc1nc2cnc(C(=O)N3CCOCC3c3ccc(C4CC4)nc3)cc2c2c1COC2 (racemic) [Example 495, (4-amino-1,3-dihydrofuro[3,4-c][1,7]naphthyridin-8-yl)-[rac-(3S)-3-(6-cyclopropyl-3-pyridyl)morpholin-4-yl]methanone]	0.502	–	–	–
CC1(C)CN(C(=O)c2ccc3nc(N)c4c(c3c2)COC4)[C@@H](c2ccc(C(F)(F)F)cn2)CO1 (single isomer, unassigned) [Example 594]	0.099	–	–	–
